Legend:
[1] = Determination of compound Cmax and AUC after oral gavage; type: in vivo; settings: Sprague-Dawley, rat plasma, actual oral dose 8.9 mg/kg (Example 11) or 10 mg/kg (Example 2)
Protocol: Sprague-Dawley rats were orally gavaged with test article at a nominal dose of 2.5 or 10 mg/kg and blood was collected at 0.5, 1, 2 and 4 h. Blood samples were processed to plasma using K2EDTA as an anticoaglulant. Plasma samples were treated with acetonitrile containing an internal standard, precipitated proteins removed by centrifugation. Supernatants were analyzed by LC-MS/MS and compound concentrations were determined by interpolated from a standard curve prepared in plasma. All compounds were orally dosed at the dosage shown, and pharmacokinetic parameters determined

[2] = Fecal recovery of orally administered compounds; type: in vivo; settings: rat, oral gavage, feces collected until 48 hr after dosing, same animals as Example 22
Protocol: Quantitative determination of test compound level in feces after oral gavage was performed using the same set of animals used to determine test compound concentration in plasma (Example 22). The animals were kept in metabolic cages and feces were collected from the time of dosing until 48 hr after dosing. Upon collection, feces was dried by lyophilization and ground to a visually homogenous powder. Duplicate samples of ground feces from each individual animal were weighed out and extracted using organic solvent. Extracted samples were then diluted into mobile phase and test compound levels were quantitatively determined by LC-MS/MS analysis as described in “Example 22” except that the standard curve was prepared in a feces matrix. Extraction conditions were not optimized for individual compounds, and thus may represent a minimal level of recovery.

rat NaP2b (SLC34A2) = biological target: T1, rat NaP2b (SLC34A2) (Rattus norvegicus, UniProt Q9JJ09); assay: NaP2b-mediated Pi transport (33P uptake) in transfected HEK293 cells, rat transporter; type: cell-based; settings: HEK293 cells transfected with rat NaP2b, 33P phosphate uptake, 100 uM KH2PO4; read-out: pIC50 range for rat Nap2b (converted)
T1 construct: host or cells: HEK293
T1 sequence (Q9JJ09 1-695): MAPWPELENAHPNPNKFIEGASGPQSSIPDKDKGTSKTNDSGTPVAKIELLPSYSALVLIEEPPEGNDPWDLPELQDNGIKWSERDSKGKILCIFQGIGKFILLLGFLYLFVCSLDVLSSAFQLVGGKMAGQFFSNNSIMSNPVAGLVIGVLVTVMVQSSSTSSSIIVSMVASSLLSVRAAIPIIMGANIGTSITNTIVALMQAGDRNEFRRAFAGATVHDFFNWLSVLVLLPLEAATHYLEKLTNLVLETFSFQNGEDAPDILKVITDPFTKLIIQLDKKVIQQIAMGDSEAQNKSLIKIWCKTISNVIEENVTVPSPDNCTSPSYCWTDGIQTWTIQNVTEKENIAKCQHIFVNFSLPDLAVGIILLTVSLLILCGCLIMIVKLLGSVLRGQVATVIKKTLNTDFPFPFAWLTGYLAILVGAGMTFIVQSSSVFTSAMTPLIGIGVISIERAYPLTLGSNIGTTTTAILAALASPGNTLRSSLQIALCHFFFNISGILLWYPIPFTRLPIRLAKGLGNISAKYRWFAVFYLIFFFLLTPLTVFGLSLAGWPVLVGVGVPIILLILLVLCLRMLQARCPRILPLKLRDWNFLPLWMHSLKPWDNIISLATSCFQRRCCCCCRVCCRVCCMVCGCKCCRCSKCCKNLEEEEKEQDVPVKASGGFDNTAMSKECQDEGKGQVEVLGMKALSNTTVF
Protocol: HEK293 cells were obtained from the American Type Culture collection and propagated per their instructions. Expression clones for rat and human NaP2b (SLC34A2) were obtained from Open Biosystems (Catalog numbers MRN1768-9510282, and MHS1010-99823026, respectively). The sequence of the human protein was mutated to insert a threonine after residue 37, and to introduce a N39D mutation.
The rate of phosphate (Pi) uptake into HEK293 cells was measured using a modification of the method described by Mohrmann et al. (Mohrmann, I., Mohrmann, M., Biber, J., and Murer, H. (1986) Am. J. Phys. 250(3 Pt 1):G323-30.) Transfected HEK293 cells were treated with a pharmacological agent to minimize endogenous PiT-mediated phosphate transport activity, such that the only remaining sodium-dependent phosphate transport activity is that which was bestowed by introduction of the NaP2b genes.
Cells were seeded into 96-well plates at 25,000 cells/well and cultured overnight. Lipofectamine 2000 (Invitrogen) was used to introduce the NaP2b cDNA, and the cells were allowed to approach confluence during a second overnight incubation. […] Cells were then overlayed with either choline uptake buffer or sodium uptake buffer (14 mM Tris, 137 mM sodium chloride, 5.4 mM KCl, 2.8 mM CaCl2, 1.2 mM MgSO4, 100 uM KH2PO4, PiT-silencing agent, 1 mg/mL Bovine Serum Albumin, pH 7.4) containing 6-9 uCi/mL ^33P orthophosphoric acid (Perkin Elmer) and test compound. Each compound was tested at twelve concentrations ranging from 0.1 nM to 30 uM. Assays were run in duplicate.
After incubation for 3-30 minutes at room temperature, assay mixtures were removed, and the cells were washed twice with ice cold stop solution (137 mM sodium chloride, 14 mM Tris, pH 7.4). Cells were lysed by addition of 20 μL 0.1% Tween 80 followed by 100 μL scintillation fluid, and counted using a TopCount (Perkin Elmer).
pIC50 (the negative log of the IC50) values of the test compounds were calculated using GraphPad Prism.

Sprague-Dawley rats = assay: In vivo bolus phosphate challenge; settings: rat, oral, Drug Dose 30 (unit not given), serum 30 min post phosphate bolus
Protocol: By pretreating animals with a low phosphorus diet followed by the subsequent dosing of a phosphorus bolus, serum phosphorus levels were monitored after 30 minutes as a surrogate for intestinal phosphorus absorption. […] The in vivo bolus phosphorus challenge model used here mimics this model in rats.
Male, 7-week-old Sprague-Dawley rats (Charles-River laboratories international, Hollister, Calif.) were allowed to acclimate for a minimum of 3 days before switching to a synthetic low-phosphorus diet (TD.85010, Harlan Teklad, Madison, Wis.) which contains 0.1% phosphorus and 0.6% calcium. At day 5, testing compounds or vehicle alone (as indicated) were orally administered at the indicated dose in a volume of 5 ml/kg, followed by a bolus gavage of monobasic sodium phosphate (1 mmol in 1 ml) 15 min after compound dosing. Serum was collected via retroorbital bleeding 30 min post phosphate bolus and phosphate levels were determined utilizing an ACE ALERA blood chemistry analyzer (Alfa Wassermann Diagnostic Technologies, West Caldwell, N.J.).
The extent of inhibition by test compounds on the elevation of serum phosphate levels in response to the bolus of phosphate is shown in Table 3 (data are expressed as % Inhibition, with 6-10 animals per data point). The differences between groups were evaluated by one-way analysis of variance with Dunnett's post hoc tests.

SMILES	Cmax ([1]; LLOQ 5 ng/mL) [ng/mL]	AUC ([1]; samples 0.5-4 h) [ng·h/mL]	% recovered in feces [2] [%]	IC50 (rat NaP2b (SLC34A2)) [µM]	% Inhibition of Serum P elevation (Sprague-Dawley rats) [%]
O=C(O)CCSCc1cccc(C(=O)Nc2ccc(N3CCCCC3)cc2C(=O)Nc2cnc(-c3ccccc3)nc2)c1 [Example 2, 3-((3-((2-((2-Phenylpyrimidin-5-yl)carbamoyl)-4-(piperidin-1-yl)phenyl)carbamoyl)benzyl)thio)propanoic acid]	645	822	16	1 to 7.94	
O=C(O)CCSCc1cccc(C(=O)Nc2ccc(N3CCCCC3)cc2C(=O)Nc2cnc(-c3cccc(C(F)(F)F)c3)nc2)c1 [Example 4, 3-((3-((4-(Piperidin-1-yl)-2-((2-(3-(trifluoromethyl)phenyl)pyrimidin-5-yl)carbamoyl)phenyl)carbamoyl)benzyl)thio)propanoic acid]				1 to 7.94	11
